The values below come from paper PMC9283420, “Conformational changes in the catalytic region are responsible for heat-induced activation of hyperthermophilic homoserine dehydrogenase” (Communications Biology, 2022).

Series [1] has as its target T1, immature StHSD (not heat-treated) (Sulfurisphaera tokodaii, UniProt F9VNG5).
T1 construct: gene hom; full length (residues 1-304 described), recombinant from plasmid pSTHSD in E. coli BL21 at 310 K, purified without heat treatment; homodimer with C303-C303 intersubunit disulfide (oxidized)
T1 sequence (F9VNG5 1-304): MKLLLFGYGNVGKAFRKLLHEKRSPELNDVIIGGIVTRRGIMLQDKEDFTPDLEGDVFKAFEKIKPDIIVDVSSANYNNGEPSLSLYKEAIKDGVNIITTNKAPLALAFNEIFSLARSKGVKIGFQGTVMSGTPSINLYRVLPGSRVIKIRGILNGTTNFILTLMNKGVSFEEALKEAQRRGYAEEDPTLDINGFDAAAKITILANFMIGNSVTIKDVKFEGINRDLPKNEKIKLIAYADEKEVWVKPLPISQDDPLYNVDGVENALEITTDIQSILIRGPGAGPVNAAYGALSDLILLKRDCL
Description: initial velocity of NADH production at […] nm; Morrison fit. It counts as biochemical. Particulars: read-out: apparent Ki.

In series [2] the target is T2, mature StHSD (heat-treated) (Sulfurisphaera tokodaii, UniProt F9VNG5).
T2 construct: gene hom; full length (residues 1-304 described), recombinant from plasmid pSTHSD in E. coli BL21, matured by heat treatment (343 K); homodimer
T2 sequence (F9VNG5 1-304): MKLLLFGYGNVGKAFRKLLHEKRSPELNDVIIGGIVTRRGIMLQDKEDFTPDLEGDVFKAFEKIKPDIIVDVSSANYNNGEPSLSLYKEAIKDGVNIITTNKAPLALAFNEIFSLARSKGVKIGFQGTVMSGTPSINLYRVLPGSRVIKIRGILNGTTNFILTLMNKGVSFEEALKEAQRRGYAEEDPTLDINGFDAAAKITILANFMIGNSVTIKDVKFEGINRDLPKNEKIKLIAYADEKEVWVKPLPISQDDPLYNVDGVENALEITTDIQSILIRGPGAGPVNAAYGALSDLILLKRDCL
The description is as above. The class given is biochemical. Particulars: read-out: apparent Ki.

Series [3] concerns the molecule itself. Description: crystal structure; hanging-drop vapor diffusion at 295 K; immature enzyme as apo-form (IM) and with NADP+ and 1,4-butanediol (IM/NADP/BU); space group P2(1), two subunits in the asymmetric unit.

For `NC(=O)c1ccc[n+]([C@@H]2O[C@H](COP(=O)(O)OP(=O)(O)OC[C@H]3O[C@@H](n4cnc5c(N)ncnc54)[C@H](OP(=O)(O)O)[C@@H]3O)[C@@H](O)[C@H]2O)c1` [NADP^+], the Ki in series [1] came to 26 ± 1.7 µM; in series [2], 48 ± 1.2 µM.

B1: homoserine dehydrogenase from the hyperthermophilic archaeon Sulfurisphaera tokodaii strain 7 (StHSD), immature enzyme (enzyme)
chain: MKLLLFGYGNVGKAFRKLLHEKRSPELNDVIIGGIVTRRGIMLQDKEDFTPDLEGDVFKAFEKIKPDIIVDVSSANYNNGEPSLSLYKEAIKDGVNIITTNKAPLALAFNEIFSLARSKGVKIGFQGTVMSGTPSINLYRVLPGSRVIKIRGILNGTTNFILTLMNKGVSFEEALKEAQRRGYAEEDPTLDINGFDAAAKITILANFMIGNSVTIKDVKFEGINRDLPKNEKIKLIAYADEKEVWVKPLPISQDDPLYNVDGVENALEITTDIQSILIRGPGAGPVNAAYGALSDLILLKRDCL
modifications: disulfide bond between the C303 residues of the two subunits
notes: homoserine dehydrogenase, Sulfurisphaera tokodaii strain 7; The same recombinant enzyme after heat treatment is called the mature enzyme (cited structures 4YDR, 5X9D); The IM/NADP/BU crystal form also holds NADP+ and 1,4-butanediol; also called immature StHSD; IM/NADP/BU; source: Blue Sepharose for the apo-form
With B1, the stoichiometry N (in general, the number of molecules, sites or subunits per partner or assembly) in series [3] turned out to be 2 subunits.
